From ChEMBL document CHEMBL1671616, “Bloodstream infections caused by extended-spectrum-beta-lactamase- producing Escherichia coli: risk factors for inadequate initial antimicrobial therapy” (2008)

What was measured:
Format in all cases: functional
Escherichia coli [1] = assay: Antimicrobial activity against ESBL producing Escherichia coli isolated from patient bloodstream assessed as resistant isolate by Etest method in presence of Tazobactam
Escherichia coli [2] = assay: Antimicrobial activity against ESBL producing Escherichia coli isolated from patient bloodstream assessed as resistant isolate by Etest method
Escherichia coli [3] = assay: Antimicrobial activity against ESBL producing Escherichia coli isolated from patient bloodstream assessed as resistant isolate by Etest method in presence of clavulanic acid

| Compound | Activity (Escherichia coli [2]) [%] | further results |
| --- | --- | --- |
| C[C@]1(Cn2ccnn2)[C@H](C(=O)O)N2C(=O)C[C@H]2S1(=O)=O [TAZOBACTAM] |  | Activity (Escherichia coli [1]): 15.5% |
| C[C@H]1COc2c(N3CCN(C)CC3)c(F)cc3c(=O)c(C(=O)O)cn1c23.C[C@H]1COc2c(N3CCN(C)CC3)c(F)cc3c(=O)c(C(=O)O)cn1c23.O [LEVOFLOXACIN] | 92.2 |  |
| NCC[C@H](O)C(=O)N[C@@H]1C[C@H](N)[C@@H](O[C@H]2O[C@H](CN)[C@@H](O)[C@H](O)[C@H]2O)[C@H](O)[C@H]1O[C@H]1O[C@H](CO)[C@@H](O)[C@H](N)[C@H]1O [AMIKACIN] | 0 |  |
| CC1(C)S[C@@H]2[C@H](NC(=O)[C@H](N)c3ccc(O)cc3)C(=O)N2[C@H]1C(=O)O [AMOXICILLIN] |  | Activity (Escherichia coli [3]): 30.2% |
| C[C@@H](O)[C@H]1C(=O)N2C(C(=O)O)=C(SCCNC=N)C[C@H]12 [IMIPENEM ANHYDROUS] | 0 |  |
| C[C@@H](O)[C@H]1C(=O)N2C(C(=O)O)=C(S[C@@H]3CN[C@H](C(=O)N(C)C)C3)[C@H](C)[C@H]12 [MEROPENEM] | 0 |  |
| O=C(O)c1cn(C2CC2)c2cc(N3CCNCC3)c(F)cc2c1=O [CIPROFLOXACIN] | 92.2 |  |
| GENTAMICIN | 33.3 |  |
